Measured values published in patent US20240182874A1, “NOVEL FAMILY OF DNA POLYMERASES ACCEPTING 2-AMINOADENINE AND REJECTING ADENINE IN THEIR SUBSTRATES” (THE EUROPEAN SYNDICATE OF SYNTHETIC SCIENTISTS AND …, priority 2021, published 2024).

Columns and labels:
Assay in all cases: Single nucleotide extension assay, steady-state kinetics (Table 2)
[1] = test system: T1, Nc1nc(N)c2ncn([C@H]3C[C@H](O)[C@@H](COP(=O)(O)OP(=O)(O)OP(=O)(O)O)O3)c2n1; format: biochemical, Acinetobacter phage SH-Ab 15497; settings: other: 37° C., pH7, 500 nM duplex X1648/X1649, average and standard deviation of three independent assays, pH 7.0
T1 construct: 3'-exonuclease-disabled D74A
Source text: (§1) DpoZ genes from each bacteriophage were also cloned in the P15A plasmid pVDM18 previously described (Pezo et al., Sci Rep. 3, 1359 (2013)). Exonuclease mutants were constructed by site directed mutagenesis of pVDM18 Pol constructs using X1379/X1380 oligonucleotides for Vibrio phage PhiVC8 DNA pol (D85A mutation), X1865/X1866 for Arthrobacter phage Wayne DNA pol (D146A mutation), X1990/X1991 for Acinetobacter phage SH-Ab-15497 (D74A mutation), X1867/X1868 for Gordonia phage Ghobes DNA pol (D109A mutation) and X1601/X1602 for Klenow fragment of E. coli DNA pol I (D101A mutation). Mutations were verified by full sequencing of the constructs. These mutants were also sub-cloned into the pGEN452 vector downstream a His6-tag for protein expression
(§2) Kinetic parameters were determined in a single nucleotide extension assay using DNA polymerase mutants devoid of 3′exonuclease activity, followed by denaturing polyacrylamide gel electrophoresis of the extended products essentially as described (O'Flaherty and Guengerich, Current Protocols in Nucleic Acid Chemistry. 59 (2014)). The fluorescent oligonucleotide X1648 was annealed to X1649 template. Duplex substrates were used at 500 nM concentration in reaction buffer (20 mM TrisHCl pH7, 200 mM NaCl, 2 mM DTT, 5 mM MgCl2), with different enzymes concentrations and various dNTPs concentrations. Reactions were performed at 37° C. for variable times in conditions to remain in the confines of the steady-state kinetic model e.g. remaining below 20% of product formation (Creighton et al., Methods in Enzymology (Elsevier, 1995; https://linkinghub.elsevier.com/retrieve/pii/0076687995620214), vol. 262, pp. 232-256).
(§3) • The Km affinity constant and the kcat turnover number of 3′-exonuclease-disabled and His-tagged versions of DpoZ polymerases from Vibrio phage PhiVC8 and Acinetobacter phage SH-Ab 15497 are shown in comparison with PolA polymerase (Klenow fragment) from E. coli. The average and standard deviation of three independent assays carried out under the same conditions are given for each experiment.

[2] = test system: T2, Nc1ncnc2c1ncn2[C@H]1C[C@H](O)[C@@H](COP(=O)(O)OP(=O)(O)OP(=O)(O)O)O1; format: biochemical, Acinetobacter phage SH-Ab 15497; settings: other: 37° C., pH7, 500 nM duplex X1648/X1649, average and standard deviation of three independent assays, pH 7.0
T2 construct: 3'-exonuclease-disabled D74A
Source text: as §1, §2, §3

[3] = target: T3, Acinetobacter phage SH-Ab 15497 DpoZ DNA polymerase (SEQ ID NO: 113), His-tagged, 3′-exonuclease-disabled mutant D74A (Acinetobacter phage SH-Ab 15497, UniProt A0A2H5BHJ5, D74A); format: biochemical; settings: for Efficiency: catalytic efficiency, average and standard deviation of three independent assays
T3 construct: 3'-exonuclease-disabled D74A
T3 sequence (A0A2H5BHJ5 1-624 D74A): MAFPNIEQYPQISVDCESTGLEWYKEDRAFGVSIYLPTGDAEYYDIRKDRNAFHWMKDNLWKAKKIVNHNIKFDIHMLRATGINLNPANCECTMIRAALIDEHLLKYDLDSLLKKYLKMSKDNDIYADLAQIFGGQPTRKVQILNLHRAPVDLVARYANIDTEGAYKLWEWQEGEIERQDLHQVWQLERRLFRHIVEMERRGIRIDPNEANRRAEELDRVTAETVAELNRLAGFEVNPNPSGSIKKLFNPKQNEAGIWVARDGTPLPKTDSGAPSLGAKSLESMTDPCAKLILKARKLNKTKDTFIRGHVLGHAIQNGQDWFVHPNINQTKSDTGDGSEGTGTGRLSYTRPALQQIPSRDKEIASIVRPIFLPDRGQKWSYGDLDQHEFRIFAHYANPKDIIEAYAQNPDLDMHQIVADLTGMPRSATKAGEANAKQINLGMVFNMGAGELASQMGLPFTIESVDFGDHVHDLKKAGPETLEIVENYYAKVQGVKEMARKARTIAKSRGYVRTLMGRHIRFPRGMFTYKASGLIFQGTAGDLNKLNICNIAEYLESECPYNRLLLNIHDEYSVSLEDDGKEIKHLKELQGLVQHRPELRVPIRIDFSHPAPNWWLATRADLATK
Source text: as §1, §2, §3

[4] = target: T4, E. coli PolA polymerase (Klenow fragment of E. coli DNA pol I, SEQ ID NO: 234), His-tagged, 3′-exonuclease-disabled mutant D101A (Escherichia coli, UniProt P00582, D424A); format: biochemical; settings: for Efficiency: catalytic efficiency, average and standard deviation of three independent assays
T4 construct: 3'-exonuclease-disabled
Source text: as §1, §2, §3

[5] = target: T5, Vibrio phage PhiVC8 DpoZ DNA polymerase (SEQ ID NO: 112), His-tagged, 3′-exonuclease-disabled mutant D85A (Vibrio phage phiVC8, UniProt G3FFN8, D85A); format: biochemical; settings: for Efficiency: catalytic efficiency, average and standard deviation of three independent assays
T5 construct: 3'-exonuclease-disabled D85A
T5 sequence (G3FFN8 1-633 D85A): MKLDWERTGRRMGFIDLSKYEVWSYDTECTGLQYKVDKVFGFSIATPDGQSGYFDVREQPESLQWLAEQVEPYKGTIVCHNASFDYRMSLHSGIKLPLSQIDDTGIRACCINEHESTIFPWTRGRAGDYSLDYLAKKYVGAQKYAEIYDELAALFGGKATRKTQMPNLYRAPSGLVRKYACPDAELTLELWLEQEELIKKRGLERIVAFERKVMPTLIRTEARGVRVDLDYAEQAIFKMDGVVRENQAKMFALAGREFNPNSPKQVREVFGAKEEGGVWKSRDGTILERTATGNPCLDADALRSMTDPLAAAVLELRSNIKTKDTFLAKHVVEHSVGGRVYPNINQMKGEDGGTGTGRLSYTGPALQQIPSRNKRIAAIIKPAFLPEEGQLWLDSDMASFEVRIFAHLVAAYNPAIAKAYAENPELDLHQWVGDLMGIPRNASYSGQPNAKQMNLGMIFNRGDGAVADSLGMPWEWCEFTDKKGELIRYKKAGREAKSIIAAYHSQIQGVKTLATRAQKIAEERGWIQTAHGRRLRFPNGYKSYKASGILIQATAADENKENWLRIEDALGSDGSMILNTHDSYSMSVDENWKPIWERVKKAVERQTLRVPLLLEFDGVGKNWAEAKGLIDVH
Source text: as §1, §2, §3

[6] = test system: T6, Nc1nc(N)c2ncn([C@H]3C[C@H](O)[C@@H](COP(=O)(O)OP(=O)(O)OP(=O)(O)O)O3)c2n1; format: biochemical, Vibrio phage PhiVC8; settings: other: 37° C., pH7, 500 nM duplex X1648/X1649, average and standard deviation of three independent assays, pH 7.0
T6 construct: 3'-exonuclease-disabled D85A
Source text: as §1, §2, §3

[7] = test system: T7, Nc1ncnc2c1ncn2[C@H]1C[C@H](O)[C@@H](COP(=O)(O)OP(=O)(O)OP(=O)(O)O)O1; format: biochemical, Vibrio phage PhiVC8; settings: other: 37° C., pH7, 500 nM duplex X1648/X1649, average and standard deviation of three independent assays, pH 7.0
T7 construct: 3'-exonuclease-disabled D85A
Source text: as §1, §2, §3

T4 sequence (P00582 with tags, fused parts or gaps D424A): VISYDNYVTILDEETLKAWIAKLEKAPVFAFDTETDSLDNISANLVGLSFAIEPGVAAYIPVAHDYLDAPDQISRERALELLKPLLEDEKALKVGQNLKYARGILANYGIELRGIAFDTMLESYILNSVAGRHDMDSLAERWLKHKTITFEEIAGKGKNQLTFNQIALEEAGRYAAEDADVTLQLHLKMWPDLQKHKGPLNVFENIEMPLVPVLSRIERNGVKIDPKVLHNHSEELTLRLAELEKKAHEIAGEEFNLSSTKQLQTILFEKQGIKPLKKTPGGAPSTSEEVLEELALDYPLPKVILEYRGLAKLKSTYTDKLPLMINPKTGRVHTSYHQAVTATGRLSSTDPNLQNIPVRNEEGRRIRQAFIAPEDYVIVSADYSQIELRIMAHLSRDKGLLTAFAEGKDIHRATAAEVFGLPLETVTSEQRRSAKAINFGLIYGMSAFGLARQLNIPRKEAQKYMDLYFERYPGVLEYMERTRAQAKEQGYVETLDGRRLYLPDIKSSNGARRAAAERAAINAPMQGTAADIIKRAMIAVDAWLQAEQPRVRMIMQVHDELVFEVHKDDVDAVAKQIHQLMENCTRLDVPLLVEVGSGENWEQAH

## Acinetobacter phage SH-Ab 15497 DpoZ DNA polymerase (SEQ ID NO: 113), His-tagged, 3′-exonuclease-disabled mutant D74A (Acinetobacter phage SH-Ab 15497; D74A)
[1]
  Km: 1300 ± 360 µM
  kcat: 0.29 ± 0.07 s⁻¹
[2]
  Km: 21400 ± 3400 µM
  kcat: 0.16 ± 0.01 s⁻¹

## Nc1ncnc2c1ncn2[C@H]1C[C@H](O)[C@@H](COP(=O)(O)OP(=O)(O)OP(=O)(O)O)O1 [dATP, deoxyadenosine 5′-triphosphate]
[3]
  Efficiency: 0.008 ± 0.001 mM⁻¹ s⁻¹
[4]
  Efficiency: 30.40 ± 5.82 mM⁻¹ s⁻¹
[5]
  Efficiency: 0.048 ± 0.017 mM⁻¹ s⁻¹

## Vibrio phage PhiVC8 DpoZ DNA polymerase (SEQ ID NO: 112), His-tagged, 3′-exonuclease-disabled mutant D85A (Vibrio phage phiVC8; D85A)
[6]
  Km: 100 ± 20 µM
  kcat: 0.42 ± 0.14 s⁻¹
[7]
  Km: 4500 ± 1380 µM
  kcat: 0.21 ± 0.05 s⁻¹

## Nc1nc(N)c2ncn([C@H]3C[C@H](O)[C@@H](COP(=O)(O)OP(=O)(O)OP(=O)(O)O)O3)c2n1 [dZTP, 2-amino-2′-deoxyadenosine 5′-triphosphate]
[3]
  factor in catalytic efficiency with dZTP relative to dATP: 29 -fold
  Efficiency: 0.23 ± 0.06 mM⁻¹ s⁻¹
[3]; kcat dZTP / kcat dATP
  kcat^(Z)/kcat^(A): 1.81
[4]
  factor in catalytic efficiency with dZTP relative to dATP: 0.5 -fold
  Efficiency: 17.73 ± 4.96 mM⁻¹ s⁻¹
[4]; kcat dZTP / kcat dATP
  kcat^(Z)/kcat^(A): 0.68
[5]
  factor in catalytic efficiency with dZTP relative to dATP: 90 -fold
  Efficiency: 4.35 ± 1.56 mM⁻¹ s⁻¹
[5]; kcat dZTP / kcat dATP
  kcat^(Z)/kcat^(A): 2.00
